Where two headings read alike, the source gives them in different places.
How the values were obtained:
[1] = system: NMDA toxicity in cerebral cortical cultures; details: concentration of 100 μM; Zhang et al. 1994; cited from earlier work
[2] = biological target: T1, PARP (Mus musculus, UniProt P11103); assay: PARP catalytic (self-modification) assay, mouse brain nuclear fraction; format: biochemical; details: benzamide treatment
T1 construct: from tissue; host or cells: mouse brain (forebrain) nuclear fraction, wild-type 129/SV
T1 sequence (P11103 whole entry): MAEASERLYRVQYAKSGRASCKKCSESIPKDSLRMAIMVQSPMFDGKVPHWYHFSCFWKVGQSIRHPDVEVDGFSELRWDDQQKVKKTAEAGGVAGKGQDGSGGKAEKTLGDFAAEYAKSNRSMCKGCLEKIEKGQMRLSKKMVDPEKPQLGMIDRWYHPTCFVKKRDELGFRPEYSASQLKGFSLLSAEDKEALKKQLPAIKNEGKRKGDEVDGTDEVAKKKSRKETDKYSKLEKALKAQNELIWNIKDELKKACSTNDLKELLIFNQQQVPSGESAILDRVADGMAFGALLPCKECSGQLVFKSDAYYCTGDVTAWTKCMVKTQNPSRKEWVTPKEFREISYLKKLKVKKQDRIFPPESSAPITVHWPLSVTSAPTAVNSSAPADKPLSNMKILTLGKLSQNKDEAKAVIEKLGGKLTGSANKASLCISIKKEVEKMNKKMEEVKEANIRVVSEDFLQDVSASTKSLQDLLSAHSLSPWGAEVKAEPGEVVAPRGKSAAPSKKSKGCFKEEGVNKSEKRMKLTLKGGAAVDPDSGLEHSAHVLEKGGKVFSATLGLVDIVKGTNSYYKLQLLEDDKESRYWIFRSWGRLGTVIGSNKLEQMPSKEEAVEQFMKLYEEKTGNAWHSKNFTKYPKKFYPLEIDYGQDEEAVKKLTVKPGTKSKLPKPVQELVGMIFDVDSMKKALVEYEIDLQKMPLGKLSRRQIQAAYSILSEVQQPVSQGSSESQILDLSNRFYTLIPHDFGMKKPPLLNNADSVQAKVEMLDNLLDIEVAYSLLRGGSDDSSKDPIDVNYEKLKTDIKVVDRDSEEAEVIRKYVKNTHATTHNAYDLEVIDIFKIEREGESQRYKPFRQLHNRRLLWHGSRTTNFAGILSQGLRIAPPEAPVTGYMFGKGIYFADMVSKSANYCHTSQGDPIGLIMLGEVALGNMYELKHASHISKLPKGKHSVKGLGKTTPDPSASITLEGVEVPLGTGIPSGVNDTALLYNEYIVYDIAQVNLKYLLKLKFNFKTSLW

[3] = system: NMDA toxicity in cerebral cortical cultures; assay: NMDA toxicity in cortical cultures from wild-type, PARP+/− and PARP−/− mice (FIG. 2B); format: cell-based; details: for effect on NMDA toxicity in wild-type and PARP+/− cultures / effect on NMDA toxicity in PARP−/− cultures: 500 μM NMDA, BZD 500 μM, DPQ 10 μM; for effect on NMDA toxicity in wild-type and PARP+/− cultures: five minutes, MK801 1 μM, NArg 100 μM; for effect on NMDA toxicity in PARP−/− cultures: L-Arg 1 mM
Protocol: (§1) Mice were obtained having a targeted disruption of the PARP gene (PARP−/−), generated by the method of Wang et al., “Mice Lacking ADPRT and poly(ADP-ribosyl)ation Develop Normally But Are Susceptible to Skin Disease”, Genes Dev., 9:509-20 (1995), which is hereby incorporated by reference. The toxicity in cortical cultures elicited by a five-minute exposure to 500 μM NMDA, by 60 minutes of oxygen and glucose deprivation (OGD), and by NO-donors was evaluated, comparing cultures or cerebral cortical cells from wild-type and PARP−/− mice, as shown in FIG. 2A.
(§2) Toxicity was assayed 20-24 hours after exposure to cytotoxic conditions by microscopic examination with computer-assisted cell counting, following staining of all nuclei with 1 μg/ml Hoescht 33342 and staining of dead cell nuclei with 7 μg/ml propidium iodide. All reagents were purchased from Sigma Chemicals, St. Louis, Mo.
(§3) Both total and dead cells were counted. Glial nuclei fluoresce at a different intensity than neuronal nuclei and were gated out. The percentage of cell death was determined as the […], as compared to the percentage of cell death in control wells to account for cell death due to mechanical stimulation of the cultures. At least two separate experiments using four separate wells were performed. The results are shown in FIG. 2A, with a minimum of 15,000-20,000 neurons counted per data point, which represented the mean ± standard error of the mean (SEM)(n=8).

[4] = system: NMDA- or NO-induced neurotoxicity in primary cortical cell cultures; assay: Attenuation of NMDA- and NO (SNP)-induced neurotoxicity in primary cortical cell cultures (Example 1, FIG. 1); format: cell-based, mice; details: for EC50: Mus musculus, read-out: protection against NMDA- or NO-induced neurotoxicity, EC50 (50% of maximal protection)
Protocol: Primary cortical cell cultures were prepared from gestational, 16-day fetal mice in a procedure modified from the described in Dawson et al., “Resistance to Neurotoxicity in Cortical Cultures from Neuronal Nitric Oxide Synthase Deficient Mice”, J. Neurosci., 16:2479-87 (1996), the disclosure of which is hereby incorporated by reference. Specifically, the cortex was dissected, and the cortical cells were dissociated by a 30-minute digestion in 0.027% trypsin/saline solution (commercially available from Gibco BRL, Gaithersburg, Md.), followed by trituration in modified Eagle's medium (MEM), 20% horse serum, 25 mM glucose and 2 mM L-glutamine.
The cells were plated on 15 mm multi-well plates coated with polyornithine. Four days after plating, the cells were treated with 5-fluoro-2-deoxyuridine for three days to inhibit the proliferation of non-neuronal cells. The cells were then maintained in MEM, 10% horse serum, 25 mM glucose, and 2 mM L-glutamine in an 8% CO2, humidified 37° C. incubator. The growth medium was refreshed twice per week, and the neurons were allowed to mature for 14 days in culture before being used for experiments.
Before treatment, these critical cultures were washed with Tris buffered control salt solution (CSS) containing 120 mM NaCl, 5.4 mM KCl, 1.8 mM CaCl2, 25 mM Tris-HCl (pH 7.4) and 15 mM glucose. The washed cells were treated with NMDA or the NO-donor sodium nitroprusside (SNP) for five minutes and then washed again. The cells were then placed in growth media and returned to the incubator overnight.
Each data point represented the mean ± standard error of the mean (SEM) (n=8) of at least two separate experiments and reflected a minimum of 16,000 neurons counted.

[5] = system: OGD toxicity in cortical cultures; assay: Oxygen-glucose deprivation (OGD) toxicity in cortical cultures (FIG. 2C); format: cell-based, mice; details: 60 minutes OGD, MK801 10 μM, NArg 100 μM, L-arginine 1 mM, benzamide 500 μM; for effect on OGD toxicity in wild-type and PARP+/− cultures: DPQ 10 μM
Protocol: See Dawson et al., “Resistance to Neurotoxicity in Cortical Cultures from Neuronal Nitric Oxide Synthase Deficient Mice”, J. Neurosci., 16:2479-87 (1996), the disclosure of which is hereby incorporated by reference. Combined OGD was performed as described in Kaku et al., “Antagonism by non-NMDA Receptors Augments the Neuroprotective Effect of NMDA Receptor Blockage in Cortical Cultures Subjected to Prolonged Deprivation of Oxygen and Glucose”, Brain Res., 554:344-47 (1991) and/or Monyer et al., “Oxygen or Glucose Deprivation-induced Neuronal Injury in Cortical Cell Cultures is Reduced by Tetanus Toxin, Neuron, 8:967-73 (1992), both of which are hereby incorporated by reference.
Specifically, the culture media was completely exchanged with deoxygenated, glucose-free Earle's balanced salt solution (EBSS) containing: 116 mM NaCl, 5.4 mM KCl, 0.8 mM MgSO4, 1 mM NaH2PO4, and 0.9 mM CaCl2, bubbled with 5% H2/85% N2/5% CO2. The cultures were kept in a 37° C., anaerobic chamber for 60 minutes containing the gas mixture 5% H2/85% N2/5% CO2. Combined oxygen-glucose deprivation was terminated by removal of the cultures from the chamber and replacement of the EBSS solution with oxygenated growth media. The cultures were returned to a humidified incubator containing 5% CO2 and atmospheric oxygen at 37° C. overnight.
as §2, §3

[6] = system: infarct size in the heart; details: rabbits, cited from earlier work
[7] = system: toxicity elicited by the NO-donor SNP in cortical cultures; assay: SNP (NO-donor) toxicity in cortical cultures from wild-type, PARP+/− and PARP−/− mice; format: cell-based
Protocol: as §1, §2
as §3, with “At least two separate experiments using four separate wells were performed.” left out

[8] = biological target: poly(ADP-ribose) polymerase; details: read-out: IC50 for inhibiting PARP; reported by Suto et al.; cited from earlier work

Row | SMILES | effect on NMDA toxicity in wild-type and PARP+/− cultures [3] | effect on NMDA toxicity in PARP−/− cultures [3] | effect on OGD toxicity in PARP−/− cultures [5] | effect on OGD toxicity in wild-type and PARP+/− cultures [5] | also measured
1 | NC(=O)c1ccccc1 [benzamide] | reduced NMDA toxicity | no significant effect | no influence | reduced OGD toxicity | protection against NMDA neurotoxicity [1]: ~50%; other ribosylated nuclear proteins (gray background) in wild-type catalytic assay [2]: reduced; reduction of neurotoxicity at the maximally effective concentration ([4]; 500 μM NMDA or 500 μM SNP, maximally effective concentration): 65%; EC50 [4]: ~100000 nM
2 | N=C(N)NCCC[C@H](N)C(=O)O [L-arginine] |  | no significant effect | not in PARP−/− cultures | reversed the nitroarginine protection | reversal of nitroarginine neuroprotection against NMDA toxicity in wild-type cultures ([3]; L-Arg 1 mM with NArg 100 μM): reversed the neuroprotective effect of nitroarginine
3 | C[C@]12N[C@H](Cc3ccccc31)c1ccccc12 [MK801] | abolished NMDA toxicity |  | no differential effects | profoundly reduced toxicity | 
4 | Oc1cccc2c(O)nccc12 [1,5-dihydroxyisoquinoline] |  |  |  |  | reduction in infarct size ([6]; 1 mg/kg): 38-48%
5 | O=C1NCCc2c(OCCCCN3CCCCC3)cccc21 [DPQ, 3,4-dihydro-5-[4-(1-piperidinyl)-butoxy]-1(2H)-isoquinolinone] | significantly greater reduction of NMDA toxicity than benzamide | no significant effects |  | abolished OGD toxicity | effect on SNP toxicity in PARP−/− cultures [7]: no effect; effect on SNP toxicity in wild-type and PARP+/− cultures ([7]; not shown in FIG. 2): reduced the toxicity; IC50 [8]: 40 nM; potency relative to benzamide ([4]; DPQ vs benzamide): 500 times; EC50 ([4]; five-minute exposure to 500 μM NMDA or 500 μM SNP): 200 nM; effect on neurotoxicity at 10-100 μM ([4]; concentrations of 10-100 μM): virtually abolished neurotoxicity
6 | NC(=O)c1cccc(N)c1 [3-aminobenzamide] |  |  |  |  | reduction in infarct size in the heart ([6]; single injection 10 mg/kg one minute before occlusion or one minute before reperfusion): 32-42%

From US6358975B1, “Method of using selective parp inhibitors to prevent or treat neurotoxicity” (Johns Hopkins University, priority 1997, dated 2002)
